From PubChem BioAssay AID179 (DTP/NCI, 2004)
Active and inactive are the calls of the source.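 How the source made its calls: active means compounds giving half or more protection of infected cells from virus-caused growth loss, again on retest; inactive means the rest.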 Where a SMILES comes first, the peptide text is derived from it. The star is where a group is joined. Boc = CC(C)(C)OC(=O)*

Tested on: CEM cells HIV-1 protection, formazan growth assay
Experiment: NCI AIDS Antiviral Assay
Conditions: for IC50: measured here: growth of uninfected CEM cells
In short: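 Protection of CEM cells against HIV-1 was scored from cell growth (soluble formazan) across five concentrations, with parallel uninfected cells. Lack of protection may reflect toxicity.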

| SMILES | EC50 | IC50 | outcome |
| --- | --- | --- | --- |
| C/C=C1\CC(C(=O)OCC)CCCCCCCCCCC1=O (stereo unspecified) | > 200 µM | 8.51 µM |  |
| Clc1cccc(Sc2ccccc2)c1 | > 23.4 µM | > 23.4 µM |  |
| NC(CSSCC(N)=NCC12CC3CC(CC(C3)C1)C2)=NCC12CC3CC(CC(C3)C1)C2 | > 200 µM | 30.9 µM |  |
| O=C1CSC(=Nc2ccccc2F)N1c1ccccc1F | > 107 µM | > 107 µM |  |
| COCN1COCN(COC)C1=O | > 646 µM | > 646 µM |  |
| CNc1nc(SC)nc2c1S(=O)(=O)N=CN2 | > 263 µM | > 263 µM |  |
| COc1ccc2nc(NC(=O)C(=O)C(C(=O)c3ccccc3-c3ccccc3)C3OC(=O)c4ccccc43)sc2c1 (stereo unspecified) | > 45.7 µM | 25.1 µM |  |
| CCOC(=O)c1[nH]c2c(cc(C(=O)C(F)(F)F)c3ccccc32)c1C(F)(F)F | > 17.8 µM | > 17.8 µM |  |
| Cc1nc(N)nc(N)c1N1CCN(c2ccc(S(N)(=O)=O)cc2)CC1 | > 200 µM | 0.398 µM |  |
| Cc1cc(=O)[nH]c(NNC(C#N)c2c(O)ccc3ccccc23)n1 (stereo unspecified) | > 16.2 µM | 1.07 µM |  |
| CCOC(=O)/C(=N/Nc1ccc(C)cc1)N1C(=S)C=C(C)NN(C)C1=S | > 200 µM | > 200 µM |  |
| Nc1ccc(Cn2ccc3c4c(N)nc(N)nc4ccc32)cc1 |  |  | inactive |
| COC(=O)c1csnn1 | > 1740 µM | > 1740 µM |  |
| OC1CCC2OOC1O2 (stereo unspecified) |  |  | inactive |
| CCCCCCCCCCCCCCCC(=O)OCC1OC(n2ccc(N)nc2=O)C(O)C1O (stereo unspecified) | > 0.2 µM | 0.0129 µM |  |
| Cc1nc2ccc(N=Nc3c(O)ccc4ccccc34)cc2[nH]1 | > 61.7 µM | 55 µM |  |
| COc1ccc(C(c2c(O)c3ccccc3oc2=O)c2c(O)c3ccccc3oc2=O)cc1 | > 200 µM | 87.1 µM |  |
| C/C(=N\NC(=S)N1CCCCC1)c1cccc(C)n1 | > 0.2 µM | 0.00617 µM |  |
| O=C(O)C1=CCCc2ccc3ccccc3c21 |  |  | inactive |
| CC(C)[Si](OCC/C=C/C1CCC(=O)C1C(O)C1CCCCC1)(C(C)C)C(C)C (stereo unspecified) |  |  | inactive |
| Nc1nc(Cl)cc(NCC2CC(O)(CO)C2)n1 (stereo unspecified) | > 200 µM | > 200 µM |  |
| C/C=C/CC(C)C(O)C1C(=O)NC(CC)C(=O)N(C)CC(=O)N(C)C(CC(C)C)C(=O)NC(C(C)C)C(=O)N(C)C(CC(C)C)C(=O)NC(C)C(=O)NC(C)C(=O)N(C)C(CC(C)C)C(=O)N(C)C(CC(C)C)C(=O)N(C)C(C(C)C)C(=O)N1C (stereo unspecified) | 3.39 µM | 8.13 µM |  |

| SMILES | EC50 | IC50 | outcome |
| --- | --- | --- | --- |
| O=S1(=O)CC2(N3CCCC3)CCCCC21 (stereo unspecified) | > 1100 µM | 617 µM |  |
| C=C1[C@H](OC(=O)C(C)C)[C@]23CC4(O)[C@@H]5[C@@]6(C)CCC[C@]57C([C@@H]2C[C@@]1(O)[C@H](O)[C@@H]73)N4C6 | 61.7 µM | > 200 µM |  |
| CCN(C(=O)N[C@@H](Cc1ccccc1)C(=O)N[C@@H](CC(C)C)C(=O)NC)c1ccccc1 | > 200 µM | 195 µM |  |
| O=C(CCN1CCCC1)c1ccc(Oc2ccc(F)cc2)cc1 | > 200 µM | 110 µM |  |
| CN(C(=O)c1cccs1)C(=S)N1CCN(c2ccccc2)CC1 | > 55 µM | 30.9 µM |  |
| CC(=O)OCC1OC(n2c(=S)n(-c3ccc([N+](=O)[O-])cc3)c(=O)c3ccccc32)C(OC(C)=O)C(OC(C)=O)C1OC(C)=O (stereo unspecified) | > 29.5 µM | > 29.5 µM |  |
| CC(C)(NC(=O)OCc1ccccc1)C(=O)OC(=O)C(C)(C)NC(=O)OCc1ccccc1 | > 200 µM | > 200 µM |  |
| CC(=O)NNc1nc(C)c(C(/C=C/c2ccc3c(c2)OCO3)=N/NC(=O)c2ccncc2)s1 | > 50.1 µM | > 50.1 µM |  |
| Cc1cc(Cl)ccc1NC(=O)CCCC(=O)C(C(=O)c1ccccc1)c1ccccc1 (stereo unspecified) |  |  | inactive |
| COc1cc(C=O)c(-c2cc3c(cc2C2(C)OCCS2)OCO3)c(OC)c1OC (stereo unspecified) | > 44.7 µM | 2.51 µM |  |
| CC(C)(C)N=CN1C=Cc2nc3ccccc3cc2C1 |  |  | inactive |
| CC1(C)CCCCCC(C)(CCCO)C1=O (stereo unspecified) | > 200 µM | > 200 µM |  |
| COc1ccc(-c2cc(=O)c3c(O)cc(O)cc3o2)cc1Oc1ccc(-c2cc(=O)c3c(O)cc(O)cc3o2)cc1 | > 200 µM | 2.69 µM |  |
| ClB1NB(Cl)NB(Cl)N1 | > 138 µM | > 138 µM |  |
| CCCCCCCCCCCCOC(=N)N1CCOCC1 | > 91.2 µM | 4.47 µM |  |
| C=CC1(c2ccc3ccccc3c2)OCC(CC)(CC)CO1 | > 200 µM | 79.4 µM |  |
| CC1(C)COC2(C)N(c3ccccc3)C(=O)ON12 (stereo unspecified) | > 200 µM | > 200 µM |  |
| C[C@@H]1C(=O)c2c(O)cc3c(c2O[C@@H]1C)CCC(C)(C)O3 | > 200 µM | 47.9 µM |  |
| Cc1cc(Cl)ccc1NC(=O)C(=O)Cc1ccc([N+](=O)[O-])c([N+](=O)[O-])c1CC(=O)C(=O)Nc1ccc(Cl)cc1C | > 309 µM | 129 µM |  |
| O=C(O)CSc1n[nH]c(/C=C/c2ccccc2)n1 | > 955 µM | > 955 µM |  |
| COc1cc(OC)c2c(c1)C(=O)c1cccc(O)c1C2=O |  |  | inactive |
| OC1(CN2CCOCC2)N=C(c2ccccc2)c2ccsc2-n2cccc21 (stereo unspecified) | > 200 µM | > 200 µM |  |

| SMILES | EC50 | IC50 | outcome |
| --- | --- | --- | --- |
| COC(OC)[C@@H](C)[C@H](O)[C@](C)(O)C1OC(C)(C)OC(C(C)C=C(C)C)C1C (stereo partly specified) |  |  | inactive |
| CC(C)(C)[Si](C)(C)OCC1OC(n2cnc3c(=O)[nH]c(N)nc32)C(O[Si](C)(C)C(C)(C)C)C1O[Si](C)(C)C(C)(C)C (stereo unspecified) | > 200 µM | 4.17 µM |  |
| O=[n+]1cnn([O-])c2ccccc21 | > 200 µM | 3.63 µM |  |
| O=C1SC(c2ccccc2)(c2ccccc2)c2cscc21 | > 61.7 µM | > 61.7 µM |  |
| COc1cc2c3c(c1)/C(=N\N)CCN3CCC2 | > 200 µM | 115 µM |  |
| CC(=O)Nc1cc(Nc2cc(=O)[nH]c(=O)[nH]2)ccc1C | > 200 µM | > 200 µM |  |
| O=C(/C=C/c1ccsc1)c1ccc(Cl)s1 | > 200 µM |  |  |
| O=Cc1[nH]c(=O)[nH]c(=O)c1CO | > 200 µM | 93.3 µM |  |
| COC(=O)/C=C/c1ccc(OP(=O)(O)O)c(OC)c1 | > 200 µM | > 200 µM |  |
| Cc1nn(C(=O)CC(=O)Nc2ccccc2)c(C)c1N=Nc1ccccc1F |  |  | inactive |
| CSC1=C(C(=O)Nc2ccc(Cl)cc2)C(N)=NC1=O | > 100 µM | 74.1 µM |  |
| CC(=O)OC1CCC2(C)C(CCC3C2CCC2(C)C3CCC2C(C)(C)O)C1 (stereo unspecified) | > 200 µM | 174 µM |  |
| CCCCc1ccc(N2C(=O)c3cc(C)cnc3S2(=O)=O)cc1 | > 200 µM | > 200 µM |  |
| CC(=O)Oc1ccc2c(c1)c1c(=O)oc(C)nc1n2Cc1ccccc1 | > 200 µM | 66.1 µM |  |
| CC(NC(=O)C(C)NC(=O)C(CC(N)=O)NC(=O)CN)C(=O)NC(CO)C(=O)NC(C)C(=O)NC(CCCN=C(N)N)C(N)=O (stereo unspecified) (H-GNAASAR-NH2; configuration not given here) |  |  | inactive |
| CC(=O)Oc1ccc2c(=O)c(C(C)=O)coc2c1 |  |  | inactive |
| CCOC(=O)Nc1cc(NC(C)/C(=N/O)c2ccccc2)c([N+](=O)[O-])c(N)n1 (stereo unspecified) |  |  | inactive |
| Brc1cn2[n+](c1)[B-]n1cc(Br)c[n+]1[B-]2 | > 200 µM | 138 µM |  |
| C[N+]1(C)CC2C3C=C(I)C(C3)C2C1 (stereo unspecified) | > 214 µM | > 214 µM |  |
| CCCCCC[C@H]1CC(=O)C2CCCC[C@@]23CC[C@H](CCl)N13 (stereo partly specified) (tested in a mixture with another compound) | > 200 µM | 105 µM |  |
| CCOC(=O)Cc1nc2ccc3c(c2[nH]c1=O)C(=O)c1ccccc1C3=O | > 14.5 µM | > 14.5 µM |  |
| O=C(CC(c1ccccc1)C1C(=O)C12CCCC2)c1ccccc1 (stereo unspecified) | > 81.3 µM | > 81.3 µM |  |

| SMILES | EC50 | IC50 | outcome |
| --- | --- | --- | --- |
| Nc1nc2c(c(-c3ccccc3Cl)n1)COC/C2=C\c1ccccc1Cl |  |  | inactive |
| Cl[Si]1(Cl)Oc2ccccc2O[Si](Cl)(Cl)Oc2ccccc2O1 | > 12.6 µM | > 12.6 µM |  |
| c1cncc(CN2CCCC2)c1 |  |  | inactive |
| O=C(Nc1ccc(Cl)cc1)/C(Cc1cccc[n+]1[O-])=N\Nc1ccc([N+](=O)[O-])cc1[N+](=O)[O-] | > 107 µM | > 107 µM |  |
| Cc1ccc(S(=O)(=O)N(C)C)cc1NC1=NCCO1 | > 200 µM | > 200 µM |  |
| COc1ccc2c(O)c(Cl)c(=O)oc2c1 | > 200 µM | > 200 µM |  |
| c1ccc2[nH]c(C3=NCCS3)nc2c1 | > 1230 µM | 240 µM |  |
| C=C(c1ccccc1)[P+](c1ccccc1)(c1ccccc1)c1ccccc1 | > 20 µM | 0.219 µM |  |
| NC(CCc1ncc(C(=O)O)s1)C(=O)O (stereo unspecified) |  |  | inactive |
| Nc1ccc(N=Nc2ccc(N=Nc3c(S(=O)(=O)O)cc4cc(S(=O)(=O)O)c(N=Nc5ccc(N=Nc6ccc(N)cc6N)cc5)c(O)c4c3N)cc2)c(N)c1 | 11.5 µM | 50.1 µM |  |
| Clc1ccccc1C[P+](c1ccccc1)(c1ccccc1)c1ccccc1 | > 200 µM | 4.57 µM |  |
| O=C1C(=O)N(C2CCCCC2)C(=S)N1C1CCCCC1 | > 200 µM | > 200 µM |  |
| COC(=O)CSC(=S)Nc1nnc(NC(=S)SCOC(C)=O)n1C(=S)SCC(=O)OC | > 200 µM | > 200 µM |  |
| Cc1ccsc1/C=N/Nc1cnccn1 | > 200 µM | 75.9 µM |  |
| NCC(NC(=O)OCc1ccccc1)C(=O)O (stereo unspecified) | > 105 µM | > 105 µM |  |
| O=C1C(/C=C/c2ccc(Cl)cc2)=NNC2N1N=C1NC(=O)C3(NN12)c1ccccc1-c1ccccc13 (stereo unspecified) | > 200 µM | 132 µM |  |
| CCC1C(c2cccc(OC)c2O)c2cc3c(cc2OC1N1CCCC1)OCO3 (stereo unspecified) | > 200 µM | 8.51 µM |  |
| CC[C@@]1(C[C@H]2C[C@@]3(C(=O)OC)c4[nH]c5ccccc5c4CCN3C2=O)COC2(CCCCC2)O1 | > 200 µM | 35.5 µM |  |
| CC(NC(=O)OC(C)(C)C)C(=O)NC(Cc1ccccc1)C(=O)NCC(=O)O (stereo not drawn) (Boc-Ala-Phe-Gly-OH; configuration not given here) | > 200 µM | > 200 µM |  |
| CC(C)CCCC(C)[C@H]1CC[C@H]2[C@H]3CC[C@@H]4C[C@H](CCC=C(c5cc(Cl)c(O)c(C(=O)O)c5)c5cc(Cl)c(O)c(C(=O)O)c5)CC[C@]4(C)[C@H]3CC[C@]12C (stereo partly specified) | 41.7 µM | > 200 µM |  |
